In test [1] the target is T1, recombinant human KDM5B (Homo sapiens, UniProt Q9UGL1).
T1 sequence (Q9UGL1 374-755 limits assumed): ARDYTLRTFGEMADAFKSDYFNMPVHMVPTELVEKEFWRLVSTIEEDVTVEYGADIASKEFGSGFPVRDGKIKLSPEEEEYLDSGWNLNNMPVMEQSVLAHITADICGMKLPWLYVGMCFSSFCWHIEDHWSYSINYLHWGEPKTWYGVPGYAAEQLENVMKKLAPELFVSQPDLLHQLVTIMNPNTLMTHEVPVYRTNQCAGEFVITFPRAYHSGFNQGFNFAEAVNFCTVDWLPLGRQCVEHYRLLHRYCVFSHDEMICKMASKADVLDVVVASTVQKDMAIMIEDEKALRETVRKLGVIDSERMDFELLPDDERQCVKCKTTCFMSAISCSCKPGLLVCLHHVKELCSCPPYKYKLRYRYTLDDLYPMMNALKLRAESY
The test is described as follows: 14CO2 capture enzymatic assay (decarboxylation of [1-14C] αKG), KDM5B. The settings on record: 10 μM [1-14C] αKG, 90 μM non-labeled αKG, 50 μM peptide substrate, 37° C., 1 hour, final 1% DMSO. Format: biochemical. The procedure, abridged:
(§1)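 Truncated recombinant human KDM5B (H3K4me3 peptide) or KDM4A (H3K9me3 peptide), 50 μM peptide, with 10 μM [1-14C]αKG plus 90 μM unlabeled αKG, 10 μM Fe(SO4), 2 mM ascorbate in pH 7.4 HEPES, 1 h at 37 °C, 1% DMSO. Released 14CO2 trapped on Ba(OH)2 filter; IC50 by non-linear fit.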

In test [2] the target is T2, recombinant human KDM4A (Homo sapiens, UniProt O75164).
T2 construct: made in house
T2 sequence (O75164 1-359 limits assumed): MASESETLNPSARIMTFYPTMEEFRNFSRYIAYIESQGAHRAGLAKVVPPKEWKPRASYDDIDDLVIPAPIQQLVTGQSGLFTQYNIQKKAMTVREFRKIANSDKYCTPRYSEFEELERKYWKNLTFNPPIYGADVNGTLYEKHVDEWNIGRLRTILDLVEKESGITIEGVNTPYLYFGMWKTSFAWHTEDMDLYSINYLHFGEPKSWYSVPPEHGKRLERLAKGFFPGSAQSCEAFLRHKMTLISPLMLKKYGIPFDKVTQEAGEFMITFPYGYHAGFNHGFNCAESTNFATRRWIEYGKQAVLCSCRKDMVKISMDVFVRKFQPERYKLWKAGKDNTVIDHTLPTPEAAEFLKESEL
The test is described as follows: 14CO2 capture enzymatic assay (decarboxylation of [1-14C] αKG), KDM4A. It is filed as biochemical. Particulars: 10 μM [1-14C] αKG, 90 μM non-labeled αKG, 50 μM peptide substrate, 37° C., 1 hour, final 1% DMSO. An outline of the steps:
as §1

The results in this text go back to patent US20240002344A1, “COMPOUNDS, COMPOSITIONS AND METHODS FOR HISTONE LYSINE DEMETHYLASE INHIBITION” (FibroGen, Inc., priority 2020, published 2024).

A value given as a limit tells only on which side of the number the result lay.

By IC50 is commonly meant the point on the concentration scale where inhibition reaches its midpoint. Turning to `Cc1ccc(C)c(-c2cc(C#N)c(O)c(C(=O)CCC(=O)O)n2)c1` [Example 94, 4-[4-Cyano-6-(2,5-dimethyl-phenyl)-3-hydroxy-pyridin-2-yl]-4-oxo-butyric acid], the IC50 in test [1] was 270 nM; in test [2] it was > 40000 nM.
For `Cc1c(Cl)cccc1-c1cc(C#N)c(O)c(C(=O)CCC(=O)O)n1` [Example 89, 4-[6-(3-Chloro-2-methyl-phenyl)-4-cyano-3-hydroxy-pyridin-2-yl]-4-oxo-butyric acid] the same measures were 310 nM and > 40000 nM.
In the case of `N#Cc1cc(Cc2ccccc2Cc2ccccc2)nc(C(=O)CCC(=O)O)c1O` [Example 146, 4-[6-(2-Benzyl-benzyl)-4-cyano-3-hydroxy-pyridin-2-yl]-4-oxo-butyric acid], the IC50 in test [1] came out at 140 nM; in test [2], 39000 nM.
For `N#Cc1cc(-c2ccc(Cl)c3ccccc23)nc(C(=O)CCC(=O)O)c1O` [Example 110, 4-[6-(4-Chloro-naphthalen-1-yl)-4-cyano-3-hydroxy-pyridin-2-yl]-4-oxo-butyric acid], in that order: 270 nM and > 40000 nM.
For `Cc1cc(C)c(Cc2cc(C#N)c(O)c(C(=O)CCC(=O)O)n2)c(C)c1` [Example 124, 4-[4-Cyano-3-hydroxy-6-(2,4,6-trimethyl-benzyl)-pyridin-2-yl]-4-oxo-butyric acid] the same measures were 160 nM and > 40000 nM.
Take `N#Cc1cc(-c2ccccc2)cc(C(=O)CCC(=O)O)c1O` [Example 104, 4-(5-Cyano-4-hydroxy-biphenyl-3-yl)-4-oxo-butyric acid]: the figures for the IC50 in test [1] and in test [2] were 460 nM and > 40000 nM, respectively.
For `N#Cc1cc(NC(=O)c2c(Cl)cccc2Cl)nc(C(=O)CCC(=O)O)c1O` [Example 128, 4-[4-Cyano-6-(2,6-dichloro-benzoylamino)-3-hydroxy-pyridin-2-yl]-4-oxo-butyric acid], in that order: 380 nM and > 40000 nM.
For `N#Cc1cc(Cc2ccc(C(F)(F)F)cc2)nc(C(=O)CCC(=O)O)c1O` [Example 39, 4-[4-Cyano-3-hydroxy-6-(4-trifluoromethyl-benzyl)-pyridin-2-yl]-4-oxo-butyric acid] the same measures were 130 nM and > 40000 nM.
As to `Cc1cc(C#N)c(O)c(C(=O)CCC(=O)O)n1` [Example 6, 4-(4-Cyano-3-hydroxy-6-methyl-pyridin-2-yl)-4-oxo-butyric acid], the IC50 is 280 nM in test [1] and > 40000 nM in test [2].
For `N#Cc1cc(-c2cccc(F)c2)nc(C(=O)CCC(=O)O)c1O` [Example 20, 4-[4-Cyano-6-(3-fluoro-phenyl)-3-hydroxy-pyridin-2-yl]-4-oxo-butyric acid], in that order: 170 nM and > 40000 nM.
Turning to `N#Cc1cc(Cc2ccccc2Cl)nc(C(=O)CCC(=O)O)c1O` [Example 21, 4-[6-(2-Chloro-benzyl)-4-cyano-3-hydroxy-pyridin-2-yl]-4-oxo-butyric acid], the IC50 in test [1] stood at 210 nM; in test [2], 29000 nM.
